Experimental data taken from paper PMC10051798, “Thiosemicarbazide Derivatives Targeting Human TopoIIα and IDO-1 as Small-Molecule Drug Candidates for Breast Cancer Treatment” (International Journal of Molecular Sciences, 2023).
Converted amounts (≈) assume the structure as drawn. “And” between values parts separate entries of the source, which are not always exact repeats. Equal values may be shown once.

How the values were obtained:
[1] = system: caspase-8 in MDA-MB-231 cells; assay: FLICA caspase-8 activity flow cytometry, MDA-MB-231; assay type: cell-based, human; settings: MDA-MB-231, 20 µg/mL, 24 h
Procedure: (§1) Caspase-8 and caspase-9 activitiesweremeasured using the FLICA Caspase-8 Assay Kit and FLICA Caspase-9 Assay Kit (ImmunoChemistry Technologies, Bloomington, MN, USA), respectively, according to the manufacturer’s protocol. In brief, MCF-7 and MDA-MB-231 breast cancer cells (1 × 10^6) were washed with cold PBS twice and re-suspended in buffer. Then, 5 μL of diluted FLICA reagent and 2 μL of Hoechst 33,342 were added to 93 μL of cell suspension, mixed by pipetting and incubated for 60 min at 37 °C. After incubation, the cells were washed twice with 400 μL of apoptosis wash buffer and centrifuged at 300× g. After the last wash, the cells were resuspended in 100 μL of apoptosis wash buffer supplemented with 10 μg/mL of PI. Analyses were performed using aBD FACSCanto II flow cytometer, and the results were analyzed with FACSDiva software (version 6.1.3, BD BiosciencesSystems, San Diego, CA, USA). To identify the involvement of caspases in apoptosis induced by compounds 1–3, the investigated breast cancer cells were pretreated with the pan-caspase inhibitor, Z-VAD-FMK (100 µM) (Sigma Aldrich, St. Louis, MO, USA), as described in [28]. The activation of caspases-8 and -9 was detected as described above.

[2] = system: MDA-MB-231 cells; assay: Autophagy Assay (Red kit) flow cytometry, MDA-MB-231; assay type: cell-based, human; settings: 24 h
Procedure: (§2) In order to evaluate the number of autophagosomes and autolysosomes in breast cancer cells incubated with the investigated compounds, anAutophagy Assay (Red kit) was performed (ImmunoChemistry Technologies, Bloomington, MN, USA). In short, the unfixed cells were washed and resuspended in PBS with the added autophagy probe, Red solution. Next, the cells were incubated for 30 min at 37 °C in the dark, washed, resuspended in cellular assay buffer and the provided fixative was added at a volume/volume ratio of 1:5. The samples were measured immediately after preparation by flow cytometry using the BD FACSCanto II system (BD Biosciences Systems, San Diego, CA, USA). The percentage of cells with autophagy was calculated using FACSDiva software (version 6.1.3, BD Biosciences Systems, San Diego, CA, USA).

[3] = system: MCF-7 cells; assay: Annexin V/propidium iodide flow cytometry (apoptosis), MCF-7; assay type: cell-based, human; settings: MCF-7, 20 µg/mL, 24 h
Text: (§3) Flow cytometry analyses for apoptosis induction by the compounds 1–3 and etoposide wereperformedusing an FITC Annexin V Apoptosis Detection Kit II (BD Pharmingen, San Diego, CA, USA). The rationale of the assay is based on the externalization of phosphatidylserine on the surface of apoptotic cells. In early and late apoptotic cells, the phosphatidylserine translocates into the outer layer of the membrane, which allows annexin V-FITC to attach. Propidium iodide (PI) is, in turn, a fluorescent dye that penetrates into the late apoptotic and necrotic cells with impaired cell membrane integrity. Therefore, using annexin V and PI, it is possible to distinguish four groups of cells: living cells, early apoptotic cells, late apoptotic cells and necrotic cells. MCF-7 and MDA-MB-231 cells were incubated with 10 and 20 µg/mL of compounds 1–3 and etoposide (reference drug) for 24 h. After incubation, the cells were dyed with FITC-labeled annexin V and PI. The analysis was performed on a BD FACS Canto II flow cytometer using FACSDiva software (version 6.1.3, BD Biosciences Systems, San Diego, CA, USA). The equipment was calibrated with BD Cytometer Setup and Tracking Beads (BDBiosciences, San Diego, CA, USA).

[4] = system: caspase-8 in MCF-7 cells; assay: FLICA caspase-8 activity flow cytometry, MCF-7; assay type: cell-based, human; settings: MCF-7, 20 µg/mL, 24 h
Procedure: as §1

[5] = system: MCF-7 cells; assay: Autophagy Assay (Red kit) flow cytometry, MCF-7; assay type: cell-based, human; settings: 24 h
Procedure: as §2

[6] = system: MDA-MB-231 cells; assay: Annexin V/propidium iodide flow cytometry (apoptosis), MDA-MB-231; assay type: cell-based, human; settings: MDA-MB-231, 20 µg/mL, 24 h
Text: as §3

[7] = molecular target: recombinant CYP2D6 (Homo sapiens, UniProt P10635); assay: Vivid CYP2D6 Cyan screening kit; settings: 10 µM, positive control
Procedure: According to these assays, the examined compounds are analyzed by their ability to inhibit the production of a fluorescent signal in the reaction between recombinant CYP3A4 or CYP2D6 isozymes and specific Vivid substrates. The experiments were performed in the endpoint mode of the assay, in which solutions of examined compounds were first combined with the Master Pre-mix. After a short incubation, the background fluorescence of the Master Pre-mix and the examined compounds was measured. Next, a mix of the respective Vivid substrate and NADP^+ was added in order to initiate the enzymatic reaction. After 20 min of incubation, the reaction was terminated using a stop solution and the fluorescence was measured using the recommended (by the manufacturer) excitation and emission wavelengths. […] A reaction mixture without tested compounds was used as a negative control and its fluorescence was designated as 100%. The experiments were run in triplicate and the results were presented as means ± SD.

[8] = system: MCF-7 cells; assay: Cell cycle analysis (PI flow cytometry), MCF-7; assay type: cell-based, human; settings: MCF-7, 20 µg/mL, 24 h
Procedure: Cell cycle analyses of MCF-7 and MDA-MB-231 cells treated with compounds 1–3 and etoposide for 24 h were performed using a FACSCanto II flow cytometer (BD Bioscences Systems, San Diego, CA, USA). After incubation, breast cancer cells were trypsinized and fixed with cold ethanol (70%) and stored overnight at −20 °C. After removing ethanol, the cells were washed three times with PBS, treated with 50 μg/mL of DNase-free RNase A Solution (Promega, Madison, WI, USA) and stained with 100 μg/mL of PI. The results of measurements were analyzed using FCS Express 7 software (De Novo Software, Pasadena, CA, USA).

[9] = system: MCF-10A cells; assay: MTT viability assay, normal breast epithelial cells; assay type: cell-based, human
Procedure: Human breast cancer cells, i.e., MCF-7 (estrogen-dependent breast cancer cells) and MDA-MB-231 (estrogen-independent breast cancer cells), as well as normal human breast epithelial cells (MCF-10A) were purchased from the American Type Culture Collection (ATCC, Manassas, VA, USA). MCF-7 and MDA-MB-231 cells were cultured in DMEM (Sigma Aldrich, St. Louis, MO, USA) supplemented with 10% fetal bovine serum (FBS), penicillin (100 U/mL) and streptomycin (100 μg/mL). MCF-10A cells were cultured in Mammary Epithelial Cell Growth Medium supplemented with BPE, hEGF, insulin, hydrocortisone, GA-1000 (Lonza, Basel, Switzerland), 10% fetal bovine serum (FBS), penicillin (100 U/mL) and streptomycin (100 μg/mL). The cells were grown in T25 Cell Culture EasyFlask (Nunc, Roskilde, Denmark) at 37 °C in a humidified atmosphere of 5% CO2.
MTT assays were performed to evaluate the cytotoxic activity of the investigated compounds (1–3) against MCF-10A cells. Asuspension of cells (1 × 10^5 cells/mL) was distributed onto 96-well plates at a volume of 100 μL/well. After attachment, the cells were treated with increased concentrations of the tested compounds in medium containing 2% FBS, and incubated for 24 h. Then, 15 μL of MTT working solution (5 mg/mL in PBS) was added to each well and the plates were incubated for 3 h. Subsequently, 100 μL of 10% SDS solution was added to each well in order to dissolve the formazan formed. After overnight incubation at 37 °C, the absorbance of the obtained solution was measured at λ= 570 nm using a microplate reader (Epoch, BioTek Instruments, Inc., Winooski, VT, USA). At least two independent experiments were performed in triplicate. IC50 values of the tested compounds were calculated using the IC50 online calculator [27].

[10] = molecular target: T1, MDR1 (p-glycoprotein) in MDA-MB-231 cells (Homo sapiens, UniProt P08183); assay: MDR transporter activity assay, MDR1 in MDA-MB-231; assay type: cell-based; settings: MDA-MB-231, 20 µg/mL, 24 h
T1 construct: endogenous in cells; host or cells: MCF-7 and MDA-MB-231 cells
Procedure: An MDR Assay kit (Abcam, Cambridge, UK) was used following the manufacturer’s instructions. MCF-7 and MDA-MB-231 cells were incubated with compounds 1–3 (10 μg/mL and 20 μg/mL). After 24 h of incubation, the test cells were washed twice with 5 mL of PBS by centrifugation at 1200 rpm for 10 min. The supernatants were discarded and the cells were counted using a Scepter 3.0 handheld automated cell counter (Milipore, Burlington, MA, USA). Then, each of the tested samples was divided into three parts and analyzed. Tomeasure the activity of MDR1, MRP1 and BCRP (tubes 1–12), 5 μL of verapamil (MDR1 inhibitor) was added into tubes 1–3, 5 μL of MK-571 (MRP1 inhibitor) was added into tubes 4–6, 5 μL of noviobiocin (BCRP inhibitor) was added into tubes 7–9 and 125 μL DMEM with 1 μL of DMSO was added into tubes 10–12. Then, the samples were incubated at 37 °C for five minutes. After this time, 125 μL of Efflux Green Detection Reagent was added into tubes 1–12 and the samples were incubated for 30 min at 37 °C. After 25 min of incubation, 5 μL of PI was added to each tube. Thereafter, the samples were centrifuged for 10 min at 1200 rpm. The supernatants were discarded and the cells were resuspended in 500 μL of PBS and run on the flow cytometer immediately. Measurements were conducted on a BD FACSCanto II flow cytometer using FACSDiva software (version 6.1.3, BD Biosciences, San Diego, CA, USA). […] The calculations followed these formulas:MAFMDR1= 100 × (FMDR1 − F0)/FMDR1 MAFMRP= 100 × (FMRP − F0)/FMRP MAFBCRP= 100 × (FBCRP − F0)/FBCRP
• FMDR—MFI with MDR1 inhibitor (verapamil) • FMRP—MFI with MRP inhibitor (MK-571) • FBCRP—MFI with BCRP inhibitor (novobiocin) • F0—MFI without inhibitor
The theoretical range of the MAF values is between 0 and 100.

[11] = system: MDA-MB-231 cells; design: method as in PMID 36345785; settings: MTT; cited from earlier work
[12] = system: MCF-7 cells; design: method as in PMID 36345785; settings: MTT; cited from earlier work
[13] = system: MCF-7 cells; design: method as in PMID 36345785; settings: BrdU assay; cited from earlier work

recombinant CYP2D6, sequence (P10635 whole entry): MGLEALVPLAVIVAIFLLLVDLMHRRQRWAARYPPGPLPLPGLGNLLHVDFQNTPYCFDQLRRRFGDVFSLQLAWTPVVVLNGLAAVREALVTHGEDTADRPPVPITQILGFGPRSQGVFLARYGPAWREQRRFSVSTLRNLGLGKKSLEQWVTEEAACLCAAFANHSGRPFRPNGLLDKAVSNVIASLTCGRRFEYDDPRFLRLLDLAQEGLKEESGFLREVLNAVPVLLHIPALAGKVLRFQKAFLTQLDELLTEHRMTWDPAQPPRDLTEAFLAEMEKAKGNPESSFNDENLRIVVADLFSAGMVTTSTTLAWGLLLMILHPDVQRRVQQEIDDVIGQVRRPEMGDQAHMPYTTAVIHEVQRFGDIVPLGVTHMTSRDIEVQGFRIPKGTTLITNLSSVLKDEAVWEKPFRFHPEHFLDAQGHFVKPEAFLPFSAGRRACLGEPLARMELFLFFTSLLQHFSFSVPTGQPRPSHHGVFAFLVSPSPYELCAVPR
T1 sequence (P08183 whole entry): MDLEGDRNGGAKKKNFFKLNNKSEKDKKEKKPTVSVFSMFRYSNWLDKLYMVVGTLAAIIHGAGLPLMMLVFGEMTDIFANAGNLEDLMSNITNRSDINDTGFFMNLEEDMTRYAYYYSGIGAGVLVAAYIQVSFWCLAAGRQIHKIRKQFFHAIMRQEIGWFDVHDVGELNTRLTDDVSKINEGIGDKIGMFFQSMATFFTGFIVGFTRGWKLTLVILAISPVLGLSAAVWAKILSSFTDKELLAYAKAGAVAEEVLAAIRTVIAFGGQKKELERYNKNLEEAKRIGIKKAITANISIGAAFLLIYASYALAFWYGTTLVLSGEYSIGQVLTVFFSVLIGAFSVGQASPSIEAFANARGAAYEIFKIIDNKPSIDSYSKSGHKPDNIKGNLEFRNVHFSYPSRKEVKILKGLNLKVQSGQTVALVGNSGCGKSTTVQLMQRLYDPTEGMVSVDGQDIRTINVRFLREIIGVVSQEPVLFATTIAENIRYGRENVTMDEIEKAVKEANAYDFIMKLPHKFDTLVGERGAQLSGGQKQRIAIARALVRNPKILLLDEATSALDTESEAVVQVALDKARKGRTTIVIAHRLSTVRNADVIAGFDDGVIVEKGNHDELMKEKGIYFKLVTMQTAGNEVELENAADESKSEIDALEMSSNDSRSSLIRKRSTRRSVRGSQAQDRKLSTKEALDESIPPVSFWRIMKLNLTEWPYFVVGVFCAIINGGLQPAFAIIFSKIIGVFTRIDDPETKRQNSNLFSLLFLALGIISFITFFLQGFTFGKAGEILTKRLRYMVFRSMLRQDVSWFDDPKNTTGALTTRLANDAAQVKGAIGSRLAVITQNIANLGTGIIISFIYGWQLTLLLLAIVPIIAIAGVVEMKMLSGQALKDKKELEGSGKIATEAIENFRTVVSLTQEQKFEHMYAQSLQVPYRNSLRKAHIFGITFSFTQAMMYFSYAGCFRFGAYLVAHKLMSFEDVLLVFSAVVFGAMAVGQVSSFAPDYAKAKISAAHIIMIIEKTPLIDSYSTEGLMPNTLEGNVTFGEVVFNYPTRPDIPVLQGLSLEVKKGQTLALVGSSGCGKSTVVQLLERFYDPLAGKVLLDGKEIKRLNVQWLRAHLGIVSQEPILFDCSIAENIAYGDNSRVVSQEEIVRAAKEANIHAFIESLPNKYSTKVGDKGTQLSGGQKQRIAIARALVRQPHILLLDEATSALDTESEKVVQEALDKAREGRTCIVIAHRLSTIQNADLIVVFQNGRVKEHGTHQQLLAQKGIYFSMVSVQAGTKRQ

Question: What does the source list for `COc1cc([C@@H]2c3cc4c(cc3[C@@H](O[C@@H]3O[C@@H]5CO[C@@H](C)O[C@H]5[C@H](O)[C@H]3O)[C@H]3COC(=O)[C@H]23)OCO4)cc(OC)c1O` [etoposide, reference compound]?
Answer: cells with activated caspase-8 [1]: 7.2%; cell population forming autophagosomes and/or autolysosomes ([2]; MDA-MB-231, etoposide-treated, concentration not specified): about 1%; apoptotic cells (sum of early and late apoptotic cells) [3]: about 8.5%; cells with activated caspase-8 [4]: 6.73%; cell population forming autophagosomes and/or autolysosomes ([5]; MCF-7, etoposide-treated, concentration not specified): about 1%; apoptotic cells (sum of early and late apoptotic cells) [6]: about 8.5%

Question: Which “CYP2D6 activity vs. negative control” value [7] does the source give for `C=C[C@H]1C[N@@]2CC[C@H]1C[C@@H]2[C@@H](O)c1ccnc2ccc(OC)cc12` [guanidine] here?
Answer: 11.08 ± 0.81%

Question: With `CC(C)c1cccc(C(C)C)c1NC(=S)NNC(=O)Cc1cccc2ccccc12` [Compound 1] as the compound, how does the “cells in G2/M phase” value [8] read?
Answer: 33.6%

Question: And the “cells in S phase” value [8]?
Answer: 35.9%

Question: And the IC50 ([9]; Homo sapiens, MCF-10A, MTT, 24 h)?
Answer: 25.3 µg/mL and 60.3 µM

Question: And the “SIMCF-7 (selectivity index)” value ([9]; IC50 MCF-10A/IC50 MCF-7)?
Answer: 2.57

Question: And the “SIMDA-MB-231 (selectivity index)” value ([9]; IC50 MCF-10A/IC50 MDA-MB-231)?
Answer: 2.75

Question: And the “MAF MDR1” value [10]?
Answer: < 20

Question: What about the IC50 [11] of the same compound?
Answer: 21.9 ± 0.5 µM

Question: And the “IC50 MDA-MB-231” value [11]?
Answer: 9.21 ± 0.21 µg/mL (≈ 21.9 µM)

Question: What about the cells undergoing autophagy ([2]; MDA-MB-231, 10 µg/mL (lower end of printed range)) of the same compound?
Answer: 3.0 ± 0.2%

Question: And the cells undergoing autophagy ([2]; MDA-MB-231, 20 µg/mL (upper end of printed range))?
Answer: 5.5 ± 0.9%

Question: And the IC50 [12]?
Answer: 23.4 ± 1.12 µM

Question: What about the “IC50 MCF-7” value [12] of the same compound?
Answer: 9.82 ± 0.47 µg/mL (≈ 23.4 µM)

Question: And the “antiproliferative activity, times stronger than etoposide” value [13]?
Answer: 46 times

Question: What about the “selectivity index (SI), cancer vs normal (non-cancerous) cells” value [13] of the same compound?
Answer: 46.8

Question: And the cells undergoing autophagy ([5]; MCF-7, 10 µg/mL)?
Answer: 2.5 ± 0.2%

Question: And the cells undergoing autophagy ([5]; MCF-7, 20 µg/mL)?
Answer: 11.5 ± 1.2%
